According to US20050164951A1, “Inhibitors for the soluble epoxide hydrolase” (The Regents of the University of California, priority 2003, published 2005):
Like-named read-outs stand apart in the source and are kept apart here.

Legend:
human sEH = target: T1, human sEH (Homo sapiens, UniProt P34913); assay: Inhibition of recombinant human sEH, IC50 assay with 4-nitrophenyl-trans-2,3-epoxy-3-phenylpropyl carbonate as substrate; assay type: biochemical; conditions: read-out: IC50 (μM) Human sEH
T1 construct: made in house; host or cells: baculovirus expression system
T1 sequence (P34913 1-555): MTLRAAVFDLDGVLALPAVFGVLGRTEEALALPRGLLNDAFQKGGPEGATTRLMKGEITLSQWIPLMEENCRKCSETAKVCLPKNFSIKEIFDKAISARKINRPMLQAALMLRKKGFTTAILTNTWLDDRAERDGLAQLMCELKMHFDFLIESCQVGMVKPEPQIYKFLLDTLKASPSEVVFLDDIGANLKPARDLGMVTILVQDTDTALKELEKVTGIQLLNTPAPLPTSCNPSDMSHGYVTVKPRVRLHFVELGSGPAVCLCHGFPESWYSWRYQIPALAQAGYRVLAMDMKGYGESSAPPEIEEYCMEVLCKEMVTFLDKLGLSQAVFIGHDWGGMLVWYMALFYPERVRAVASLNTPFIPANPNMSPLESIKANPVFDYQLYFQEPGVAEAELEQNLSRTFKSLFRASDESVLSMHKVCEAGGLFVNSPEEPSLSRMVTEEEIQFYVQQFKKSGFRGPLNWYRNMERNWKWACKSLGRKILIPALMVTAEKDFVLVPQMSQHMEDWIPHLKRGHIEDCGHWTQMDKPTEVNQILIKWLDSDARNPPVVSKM
Method: (§1) Assays were performed in triplicate. […] The curve was generated from at least three separate runs, each in triplicate, to obtain the standard deviation (SD) given in Table 1 thru Table 4.

mouse sEH = target: T2, mouse sEH (Mus musculus, UniProt P34914); assay: Inhibition of recombinant mouse sEH, IC50 assay with 4-nitrophenyl-trans-2,3-epoxy-3-phenylpropyl carbonate as substrate; assay type: biochemical
T2 construct: made in house; host or cells: baculovirus expression system
T2 sequence (P34914 1-554): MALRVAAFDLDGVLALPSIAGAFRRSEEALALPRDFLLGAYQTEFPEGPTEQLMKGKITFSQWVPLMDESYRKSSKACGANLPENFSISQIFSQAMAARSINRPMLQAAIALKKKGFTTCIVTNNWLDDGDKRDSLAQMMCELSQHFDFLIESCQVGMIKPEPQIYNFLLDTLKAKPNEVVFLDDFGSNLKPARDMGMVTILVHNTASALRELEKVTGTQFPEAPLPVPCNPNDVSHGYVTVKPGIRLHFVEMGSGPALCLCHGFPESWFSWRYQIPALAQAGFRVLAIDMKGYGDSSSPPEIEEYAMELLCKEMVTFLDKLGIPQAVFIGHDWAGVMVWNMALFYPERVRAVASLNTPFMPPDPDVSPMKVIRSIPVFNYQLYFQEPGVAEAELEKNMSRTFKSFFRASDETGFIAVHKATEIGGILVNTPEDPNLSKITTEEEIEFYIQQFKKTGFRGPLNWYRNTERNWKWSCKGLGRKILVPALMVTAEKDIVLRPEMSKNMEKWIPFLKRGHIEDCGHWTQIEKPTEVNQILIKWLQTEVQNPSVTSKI
Method: as §1

[1] = Blood concentration after oral administration of 950 and AUDA-nBE, human pharmacokinetic profile; assay type: in vivo; conditions: see FIGS. 15-27
Method: FIG. 16 provides a sample preparation procedure for a pharmacokinetic study. A 5 μl whole blood sample was drawn into a capillary at a specific time point, each sample was extracted and anaylzed by LC/MS-MS. […] AUDA is the active metabolite of AUDA-nBE. […] 0.05 mg/kg. (B). 0.1 mg/kg. […] The compounds were administered at the same time in the same formulation. […] 21 mg (0.3 mg/kg) 950 and AUDA-nBE were orally administrated with starch. (B). 7 mg (0.1 mg/kg) formulated 950 and AUDA-NBE were taken with (HPMC, starch and lactose). (C). […] 950 with HPMC and Starch. (B). 950 in lactose and HPMC. […] HPMC forms a gel which slowly erodes; lactose enhances erosion at it moves through the gut and starch retards it. These formulations are combined, ball milled, and then placed in ‘0’ capsule and not compressed.

[2] = Tables 17a and b, read-out: IC50 (μM) Mouse sEH
[3] = Table 1, […] enzyme, 5 min preincubation, pH 7.4, 30° C., [S] = 40 μM, means ± SD of three experiments
[4] = Table 1, […] enzyme, 5 min preincubation, pH 7.4, 30° C., [S] = 40 μM, means ± SD of three experiments, read-out: IC50 (μM) Mouse sEH
[5] = Table 8, established protocols, read-out: IC50 (μM) Mouse sEH
[6] = Table 1, 0.12 μM enzyme, 5 min preincubation, pH 7.4, 30° C., [S] = 40 μM, means ± SD of three experiments, read-out: IC50 (μM) Mouse sEH

IC50 (human sEH; Tables 17a and b) [µM] | IC50 (mouse sEH; [2]) [µM] | Compound | further results
14 ± 0.01 | 2.4 ± 0.01 | O=C(Cc1ccccc1)NC1CCCCC1 [Compound 968] | 
 |  | COC(=O)CNC(=O)NC1CCCCC1 [Compound 549] | IC50 (human sEH; [3]): 70 ± 6 µM; IC50 (mouse sEH; [4]): 33 ± 2 µM
 |  | CCCCCOC(=O)CCCNC(=O)CC12CC3CC(CC(C3)C1)C2 [Compound 1017] | IC50 (human sEH; Table 8, established protocols): 0.43 ± 0.02 µM; IC50 (mouse sEH; [5]): 0.05 ± 0.01 µM
 |  | O=C(O)CCCNC(=O)NC1CCCCC1 [Compound 632, 4-(3-Cyclohexyl-ureido)-butyric acid] | IC50 (human sEH; [3]): > 500 µM; IC50 (mouse sEH): > 500 µM
 |  | O=C(O)CCCCCNC(=O)NC1CCCCC1 [Compound 56] | IC50 (human sEH; [3]): 253 ± 8 µM; IC50 (mouse sEH; [6]): 90 ± 3 µM
1.4 ± 0.01 | 0.11 ± 0.01 | O=C(CCCc1ccccc1)NC1CCCCC1 [Compound 971] | 
1.5 ± 0.01 | 0.05 ± 0.01 | CSC(NC(=O)C(NC(=O)CCCNC(=O)NC12CC3CC(CC(C3)C1)C2)c1c[nH]cn1)C(=O)O (stereo not shown) [Compound 1013] | 
0.1 ± 0.01 | 0.05 ± 0.01 | CCOC(=O)c1ccc(C(OC(=O)CCCNC(=O)NC23CC4CC(CC(C4)C2)C3)c2ccccc2)cc1 (stereo not shown) [Compound 949] | 
0.1 ± 0.01 | 0.05 ± 0.01 | CCOC(=O)c1ccc(COCCOCCOCCCCCNC(=O)NC23CC4CC(CC(C4)C2)C3)cc1 [Compound 956] | 
 |  | COCCOCCOCCOCCCCCNC(=O)NC12CC3CC(CC(C3)C1)C2 [Compound 952] | pharmacokinetics [1]: improved pharmacokinetics
 |  | O=C(O)CCNC(=O)NC1CCCCC1 [Compound 109] | IC50 (human sEH; [3]): 358 ± 2 µM; IC50 (mouse sEH; [4]): 122 ± 2 µM
 |  | O=C(NCCCCCOCCOCCOCCO)NC12CC3CC(CC(C3)C1)C2 [Compound 975] | IC50 (human sEH; Table 7, established protocols): 0.1 ± 0.01 µM; IC50 (mouse sEH; Table 7, established protocols, read-out: IC50 (μM) Mouse sEH): 0.05 ± 0.01 µM
 |  | CCCCCCCCCCCC(=O)NC12CC3CC(CC(C3)C1)C2 [Compound 989] | IC50 (human sEH; Table 8, established protocols): 5 ± 0.3 µM; IC50 (mouse sEH; [5]): 0.05 ± 0.01 µM
0.23 ± 0.01 | 0.05 ± 0.01 | O=C(NCCCCCOCCC(F)(F)F)NC12CC3CC(CC(C3)C1)C2 [Compound 957] | 
 |  | COC(=O)CCCCNC(=O)NC1CCCCC1 [Compound 854] | IC50 (human sEH; [3]): 5 ± 0.6 µM; IC50 (mouse sEH; [6]): 0.13 ± 0.03 µM
100 ± 0.01 | 0.09 ± 0.01 | O=C(CCCNC(=O)NC12CC3CC(CC(C3)C1)C2)NC(C(=O)N1CCCC1C(=O)O)c1c[nH]cn1 (stereo not shown) [Compound 1012] | 
1.6 ± 0.01 | 0.05 ± 0.01 | O=C(CCCCc1ccccc1)NC1CCCCC1 [Compound 992] | 
4 ± 0.01 | 2.1 ± 0.01 | O=C(CC1CCCCC1)NCCc1ccccc1 [Compound 993] | 

Compound | IC50 (human sEH; Tables 17a and b) [µM] | IC50 (mouse sEH; [2]) [µM] | further results
O=C(CCCCCCCCCCCNC(=O)NC12CC3CC(CC(C3)C1)C2)NS(=O)(=O)c1ccccc1 [Compound 914] | 0.1 ± 0.01 |  | IC50 (mouse sEH): 0.05 ± 0.01 µM
